Measurements from patent US12083115B2, “Methods for treating neurological symptoms associated with lysosomal storage diseases” (Genzyme Corporation, priority 2020, dated 2024).
pIC50: −log10 of the molar value.

Experiments:
glucosylceramide (GL-1) = test: Clinical study in GD-3 patients: GL-1 in plasma and CSF; type: in vivo, human; conditions: for GL-1 (% change): 52-weeks compared to baseline; for GL-1 concentration, 52-weeks (mean) / GL-1 concentration, 52-weeks: 15 mg/day + imiglucerase; for GL-1 concentration, 52-weeks: all six patients
Description: (§1) The endpoint assessments are related to safety, CSF biomarkers, pharmacokinetics/pharmacodynamics, systemic disease, and neuroimaging and neurological function (CNS/neurological manifestations).
(§2) During the study patients were evaluated for safety and tolerability, CSF and plasma biomarkers (glucosylceramide, GL-1; glucosylsphingosine, lyso-GL1), pharmacokinetics, markers for systemic disease (spleen and liver volume measured by magnetic resonance imaging (MRI), platelet count, hemoglobin levels), indicia of interstitial lung disease (high resolution pulmonary computed tomography (CT)), and horizontal saccadic eye movement. In addition, exploratory biomarkers were quantified in CSF of GD3 patients: ceramide (the precursor of GL-1), chitotriosidase (CHITO), GM3, and GPNMB. Symptoms of ataxia were measured using the SARA scale, neurological symptoms were measured using the trail making test, and functional MRI was used to assess neural connectivity in the brain.
(§3) Over all six GD3 patients, plasma and CSF GL-1 and lyso-GL-1 concentrations were as follows:
(§4) At Week 52, the CSF lyso-GL1 concentrations for Patient 5 were above the upper limit of quantification (ULOQ; >100 pg/mL), and biomarker results for CSF lyso-GL1 were therefore imputed using the exact ULOQ values. […] Mean results for the other study subjects were as follows (N=10; Patient 5 excluded): […]

[1] = system: GM3 expression in C32 human melanoma cells; test: GM3 fluorescent-linked immunosorbent assay (FLISA), C32; type: cell-based; conditions: 48 hours
Excerpt: Inhibition of glucosylceramide synthase activity can be measured with one or more assays. A first assay is a microsomal assay that directly measures the conversion of ceramide to glucosylceramide by HPLC. Microsomes are a source of glucosylceramide synthase activity in the microsomal assay. A second assay is a cell based, phenotypic assay that monitors cell surface expression of the downstream lipid GM3 by antibody mediated immunofluorescence. Specific protocols are provided below.
This is a phenotypic assay that measures GM3 expression in B16 mouse melanoma or C32 human melanoma cells following treatment with test compounds. Cell surface GM3 expression is determined by antibody mediated fluorescence.
Compounds are diluted in media and plated in 384 well plates in DMSO. B16 and C32 cells are assayed at densities of 20,000 cells/ml and 62,500 cells/ml, respectively, per well. Each titration curve contains 10 points that are assayed in duplicate on each test run. The plates are incubated for 48 hours at 37° C., 5% CO2, and are then washed once with TBS. Anti-GM3 antibody is added to each well and the plates are then incubated for an additional one hour at room temperature. Plates are subsequently washed twice and incubated for an additional hour with the labeled secondary antibody. Following the final incubation, the plates are washed twice and the fluorescence at λex=D640/20 nm and λem=657 nm is detected on a fluorescent reader.
The results of the microsomal assays are expressed as “GCS IC50,” which represents the concentration of the compound causing 50% inhibition of glucosylceramide synthase activity. The results of the cell-based assays are expressed as “GM3 B16 IC50” or “GM3 C32 IC50” for the B16 assay and the C32 assay, respectively. These values represent the concentration of the compound causing 50% inhibition of GM3 expression on the cell surface.

[2] = system: glucosylsphingosine (lyso-GL1); test: Clinical study in GD-3 patients: lyso-GL1 in plasma and CSF; type: in vivo, human; conditions: for Lyso-GL-1 (% change): 52-weeks compared to baseline; for Lyso-GL-1 concentration, 52-weeks (mean) / Lyso-GL-1 concentration, 52-weeks: 15 mg/day + imiglucerase; for Lyso-GL-1 concentration, 52-weeks: all six patients
Description: as §1, §2, §3, §4

[3] = CSF Concentration, N = 6, 15 mg/day + imiglucerase
[4] = CSF Concentration, N=10, Patient 5 excluded
[5] = Patient 5 (reduced Compound 2 exposure), Week 52 compared to baseline
[6] = Plasma Concentration, N = 6, 15 mg/day + imiglucerase
[7] = Plasma Concentration, N=10, Patient 5 excluded

**Q.** How did the “GL-1 (% change)” value (glucosylceramide (GL-1); [3]) turn out when `CC(C)(NC(=O)O[C@@H]1CN2CCC1CC2)c1csc(-c2ccc(F)cc2)n1` [Compound 2, (S)-quinuclidin-3-yl 2-(2-(4-fluorophenyl)thiazol-4-yl)propan-2-ylcarbamate] was run?
**A.** −55.4%

**Q.** And the “GL-1 (% change)” value (glucosylceramide (GL-1); [4])?
**A.** −79% ± 12.1%

**Q.** And the “GL-1 concentration, 52-weeks (mean)” value (glucosylceramide (GL-1); CSF, N=10, Patient 5 excluded, Baseline 7.11 ng/ml)?
**A.** 1.38 ng/mL

**Q.** And the “GL-1 concentration, 52-weeks” value (glucosylceramide (GL-1); CSF, Baseline 6.36 ng/ml)?
**A.** 2.48 ng/mL

**Q.** And the “increase in CSF GL1” value (glucosylceramide (GL-1); [5])?
**A.** ~37%

**Q.** What about the “increase in plasma GL1” value (glucosylceramide (GL-1); [5]) of the same molecule?
**A.** ~14%

**Q.** What about the “GL-1 (% change)” value (glucosylceramide (GL-1); [6]) of the same molecule?
**A.** −71.6%

**Q.** What about the “GL-1 (% change)” value (glucosylceramide (GL-1); [7]) of the same molecule?
**A.** −77% ± 11.7%

**Q.** And the “GL-1 concentration, 52-weeks (mean)” value (glucosylceramide (GL-1); Plasma, N=10, Patient 5 excluded, Baseline 5.66 μg/mL)?
**A.** 1280 ng/mL

**Q.** What about the “GL-1 concentration, 52-weeks” value (glucosylceramide (GL-1); Plasma, Baseline 6.21 μg/mL) of the same molecule?
**A.** 1590 ng/mL

**Q.** And the pIC50 [1]?
**A.** 5.02

**Q.** What about the “Lyso-GL-1 (% change)” value [2, 3] of the same molecule?
**A.** −55.9%

**Q.** What about the “Lyso-GL-1 (% change)” value [2, 4] of the same molecule?
**A.** −68% ± 17.2%

**Q.** What about the “Lyso-GL-1 concentration, 52-weeks (mean)” value ([2]; CSF, N=10, Patient 5 excluded, Baseline 45.0 pg/mL) of the same molecule?
**A.** 14.5 pg/mL

**Q.** What about the “Lyso-GL-1 concentration, 52-weeks” value ([2]; CSF, Baseline 34.0 pg/mL) of the same molecule?
**A.** 17.3 pg/mL

**Q.** What about the “increase in plasma lyso-GL1” value [2, 5] of the same molecule?
**A.** about 43%

**Q.** What about the “increase in CSF lyso-GL1” value ([2]; Patient 5 (reduced Compound 2 exposure), Week 52 compared to baseline, imputed with ULOQ) of the same molecule?
**A.** about 313%

**Q.** And the “CSF lyso-GL1 concentration” value ([2]; Patient 5, Week 52, above ULOQ)?
**A.** > 100 pg/mL

**Q.** And the “Lyso-GL-1 (% change)” value [2, 6]?
**A.** −56.7%

**Q.** What about the “Lyso-GL-1 (% change)” value [2, 7] of the same molecule?
**A.** −53% ± 13.5%

**Q.** And the “Lyso-GL-1 concentration, 52-weeks (mean)” value ([2]; Plasma, N=10, Patient 5 excluded, Baseline 27.6 ng/ml)?
**A.** 13600 pg/mL

**Q.** What about the “Lyso-GL-1 concentration, 52-weeks” value ([2]; Plasma, Baseline 29.3 ng/ml) of the same molecule?
**A.** 15200 pg/mL
